According to ChEMBL document CHEMBL4425119, “Design and Development of a Series of Potent and Selective Type II Inhibitors of CDK8” (ACS Med Chem Lett, 2016):

Key:
[1] = Permeability across basolateral to apical side of MDCK cells; format: ADME, cell-based, Canis lupus familiaris; settings: dog
[2] = Permeability across apical to basolateral side of MDCK cells; format: ADME, cell-based, Canis lupus familiaris; settings: dog, read-out: permeability

SMILES	Papp B→A [1] [×10⁻⁶ cm/s]	Papp A→B [2] [×10⁻⁶ cm/s]
CNc1nccc(N2CC[C@H](NC(=O)Nc3ccc(CN4CCN(C)CC4)c(C(F)(F)F)c3)C2)n1	4.5	4.1
CNc1nccc(N2CC[C@H](NC(=O)Nc3ccc(CN4CCOCC4)c(C(F)(F)F)c3)C2)n1	12.2	12.4
CCN1CCN(Cc2ccc(NC(=O)N[C@H]3CCN(c4ccnc(NC)n4)C3)cc2C(F)(F)F)CC1	4.2	0.3

Further lines, results first:

Papp B→A [1] [×10⁻⁶ cm/s]	Papp A→B [2] [×10⁻⁶ cm/s]	SMILES
7	3.9	CNc1nccc(N2CC[C@H](NC(=O)Nc3ccc(C)c(Cl)c3)C2)n1
4	3.9	CNc1nccc(N2CC[C@H](NC(=O)Nc3ccc(Cl)c(C(F)(F)F)c3)C2)n1
